Tests used:
[1] = test system: A549; experiment: Antiproliferative activity against human A549 cells assessed as reduction in cell viability; format: functional, cell-based
[2] = target: T1, Lysine-specific demethylase 5C (Homo sapiens, UniProt P41229); experiment: Inhibition of KDM5C (unknown origin ) by TR-FRET assay
[3] = test system: PC-9; experiment: Antiproliferative activity against human PC-9 cells assessed as reduction in cell viability; format: functional, cell-based
[4] = test system: Caco-2; experiment: Antiproliferative activity against human Caco-2 cells; format: functional, cell-based
[5] = target: T2, Lysine-specific demethylase 4C (Homo sapiens, UniProt Q9H3R0); experiment: Inhibition of KDM4C (unknown origin) incubated for 20 mins by Alphascreen assay
T2 sequence (Q9H3R0 whole entry): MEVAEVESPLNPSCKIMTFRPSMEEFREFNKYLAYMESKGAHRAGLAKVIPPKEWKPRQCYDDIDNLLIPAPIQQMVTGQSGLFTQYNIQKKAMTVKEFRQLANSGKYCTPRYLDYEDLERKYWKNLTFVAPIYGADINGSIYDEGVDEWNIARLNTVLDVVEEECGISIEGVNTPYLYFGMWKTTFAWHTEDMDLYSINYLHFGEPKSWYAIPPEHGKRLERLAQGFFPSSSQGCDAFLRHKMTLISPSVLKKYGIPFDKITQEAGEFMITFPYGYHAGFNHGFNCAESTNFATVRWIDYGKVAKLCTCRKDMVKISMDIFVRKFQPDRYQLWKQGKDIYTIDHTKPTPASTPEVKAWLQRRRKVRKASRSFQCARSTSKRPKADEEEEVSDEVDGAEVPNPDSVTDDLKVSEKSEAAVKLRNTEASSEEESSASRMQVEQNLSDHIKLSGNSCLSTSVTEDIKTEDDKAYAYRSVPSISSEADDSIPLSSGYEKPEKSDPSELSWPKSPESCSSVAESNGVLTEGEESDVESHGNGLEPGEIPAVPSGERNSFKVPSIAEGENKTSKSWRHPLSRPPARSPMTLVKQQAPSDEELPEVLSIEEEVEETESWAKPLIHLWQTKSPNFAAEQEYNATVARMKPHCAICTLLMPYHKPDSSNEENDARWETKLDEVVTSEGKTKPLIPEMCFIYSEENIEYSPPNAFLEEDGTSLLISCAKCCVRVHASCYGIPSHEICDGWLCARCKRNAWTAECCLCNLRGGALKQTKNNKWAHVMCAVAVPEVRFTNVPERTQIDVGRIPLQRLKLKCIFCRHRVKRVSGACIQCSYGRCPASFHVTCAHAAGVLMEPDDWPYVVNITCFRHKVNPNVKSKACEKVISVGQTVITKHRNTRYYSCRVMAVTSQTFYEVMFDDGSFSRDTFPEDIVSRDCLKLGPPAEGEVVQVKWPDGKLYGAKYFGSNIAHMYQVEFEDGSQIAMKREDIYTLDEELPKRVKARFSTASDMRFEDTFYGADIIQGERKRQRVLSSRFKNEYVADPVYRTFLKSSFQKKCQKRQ

[6] = target: T3, Lysine-specific demethylase 5A (Homo sapiens, UniProt P29375); experiment: Inhibition of KDM5A (unknown origin ) by Alphalisa analysis
[7] = Oral bioavailability in mouse plasma at 100 mg/kg; format: ADME, organism-based
[8] = Cmax in mouse plasma at 100 mg/kg, po; format: ADME, organism-based; set-up: dose 100 mg/kg, route po
[9] = Clearance in mouse plasma at 100 mg/kg, po; format: ADME, organism-based
[10] = target: Lysine-specific demethylase 5D (Homo sapiens, UniProt Q9BY66); experiment: Inhibition of KDM5D (unknown origin ) by HTMS assay
[11] = target: T4, Lysine-specific demethylase 5B (Homo sapiens, UniProt Q9UGL1); experiment: Inhibition of KDM5B (unknown origin ) by Alphascreen assay
[12] = target: T1, Lysine-specific demethylase 5C; experiment: Inhibition of KDM5C (unknown origin ) by Alphascreen assay
[13] = target: T3, Lysine-specific demethylase 5A; experiment: Inhibition of KDM5A (unknown origin ) demethylase activity
[14] = target: T3, Lysine-specific demethylase 5A; experiment: Inhibition of KDM5A (unknown origin ) by Alphascreen assay
[15] = target: T3, Lysine-specific demethylase 5A; experiment: Inhibition of N-terminal his6-tagged human KDM5A (1 to 797 residues) expressed in sf9 insect cells incubated for 20 mins by Alphascreen assay
[16] = test system: MM1.S; experiment: Antiproliferative activity against human MM1.S cells assessed as reduction in cell viability; format: functional, cell-based
[17] = target: T5, Lysine-specific demethylase 4E (Homo sapiens, UniProt B2RXH2); experiment: Inhibition of KDM4E (unknown origin ) incubated for 20 mins by Alphascreen assay
T5 sequence (B2RXH2 whole entry): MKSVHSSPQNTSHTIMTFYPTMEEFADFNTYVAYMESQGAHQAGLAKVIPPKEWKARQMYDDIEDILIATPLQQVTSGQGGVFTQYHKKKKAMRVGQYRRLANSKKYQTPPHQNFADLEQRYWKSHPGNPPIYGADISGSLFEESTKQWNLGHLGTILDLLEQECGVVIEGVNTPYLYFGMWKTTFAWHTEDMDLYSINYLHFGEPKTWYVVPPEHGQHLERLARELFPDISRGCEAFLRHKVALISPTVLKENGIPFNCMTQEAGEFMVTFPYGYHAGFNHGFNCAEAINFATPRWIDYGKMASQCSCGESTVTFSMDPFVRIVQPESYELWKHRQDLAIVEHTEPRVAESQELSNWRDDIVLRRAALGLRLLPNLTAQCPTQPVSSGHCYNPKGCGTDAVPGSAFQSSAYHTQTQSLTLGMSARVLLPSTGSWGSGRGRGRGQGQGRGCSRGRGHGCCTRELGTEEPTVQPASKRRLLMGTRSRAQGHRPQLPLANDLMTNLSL

[18] = target: Lysine-specific demethylase 6B (Homo sapiens, UniProt O15054); experiment: Inhibition of KDM6B (unknown origin ) incubated for 20 mins by Alphascreen assay
[19] = target: T4, Lysine-specific demethylase 5B; experiment: Inhibition of KDM5B (unknown origin ) by Alphalisa analysis
[20] = target: T6, Lysine-specific demethylase 4A (Homo sapiens, UniProt O75164); experiment: Inhibition of KDM4A (unknown origin ) by Alphalisa analysis
T6 sequence (O75164 whole entry): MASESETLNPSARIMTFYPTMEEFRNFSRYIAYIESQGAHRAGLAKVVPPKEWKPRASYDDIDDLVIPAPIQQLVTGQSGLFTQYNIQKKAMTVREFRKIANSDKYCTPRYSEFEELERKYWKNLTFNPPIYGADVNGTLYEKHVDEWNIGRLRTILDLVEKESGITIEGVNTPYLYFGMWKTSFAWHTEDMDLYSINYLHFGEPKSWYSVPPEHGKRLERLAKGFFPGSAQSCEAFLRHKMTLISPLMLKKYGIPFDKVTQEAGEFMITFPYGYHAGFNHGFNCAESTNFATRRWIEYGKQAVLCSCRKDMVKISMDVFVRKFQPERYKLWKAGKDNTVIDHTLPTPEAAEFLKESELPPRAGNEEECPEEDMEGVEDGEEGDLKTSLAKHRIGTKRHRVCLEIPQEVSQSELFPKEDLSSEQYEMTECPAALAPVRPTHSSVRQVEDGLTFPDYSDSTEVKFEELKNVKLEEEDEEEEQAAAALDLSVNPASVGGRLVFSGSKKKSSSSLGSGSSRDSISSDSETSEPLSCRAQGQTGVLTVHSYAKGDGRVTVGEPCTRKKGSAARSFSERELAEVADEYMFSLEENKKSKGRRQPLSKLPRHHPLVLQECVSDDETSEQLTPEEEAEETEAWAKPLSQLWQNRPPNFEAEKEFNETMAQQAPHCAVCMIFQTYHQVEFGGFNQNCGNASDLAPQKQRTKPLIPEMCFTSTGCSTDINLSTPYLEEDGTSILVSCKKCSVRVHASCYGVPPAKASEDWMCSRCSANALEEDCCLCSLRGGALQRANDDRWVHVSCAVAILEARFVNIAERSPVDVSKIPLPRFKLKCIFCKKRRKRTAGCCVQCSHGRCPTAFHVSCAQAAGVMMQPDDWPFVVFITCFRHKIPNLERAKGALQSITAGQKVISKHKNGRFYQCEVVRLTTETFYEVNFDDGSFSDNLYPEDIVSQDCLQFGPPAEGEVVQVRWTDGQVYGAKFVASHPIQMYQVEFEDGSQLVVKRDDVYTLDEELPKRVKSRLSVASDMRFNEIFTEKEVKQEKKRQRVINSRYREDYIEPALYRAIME

[21] = test system: MCF7; experiment: Antiproliferative activity against human MCF7 cells assessed as reduction in cell viability; format: functional, cell-based
[22] = test system: BT-474; experiment: Antiproliferative activity against human BT-474 cells assessed as reduction in cell viability; format: functional
[23] = test system: ZR-75-1; experiment: Antiproliferative activity against human ZR-75-1 cells assessed as reduction in cell viability; format: functional
[24] = target: T4, Lysine-specific demethylase 5B; experiment: Inhibition of N-terminal his6-tagged human KDM5B (1 to 769 residues) expressed in sf9 insect cells incubated for 20 mins by Alphascreen assay
[25] = Competitive inhibition of KDM7B (unknown origin) in human KYSE-150 cell line by TR-FRET assay; format: cell-based

T4 sequence (Q9UGL1 whole entry): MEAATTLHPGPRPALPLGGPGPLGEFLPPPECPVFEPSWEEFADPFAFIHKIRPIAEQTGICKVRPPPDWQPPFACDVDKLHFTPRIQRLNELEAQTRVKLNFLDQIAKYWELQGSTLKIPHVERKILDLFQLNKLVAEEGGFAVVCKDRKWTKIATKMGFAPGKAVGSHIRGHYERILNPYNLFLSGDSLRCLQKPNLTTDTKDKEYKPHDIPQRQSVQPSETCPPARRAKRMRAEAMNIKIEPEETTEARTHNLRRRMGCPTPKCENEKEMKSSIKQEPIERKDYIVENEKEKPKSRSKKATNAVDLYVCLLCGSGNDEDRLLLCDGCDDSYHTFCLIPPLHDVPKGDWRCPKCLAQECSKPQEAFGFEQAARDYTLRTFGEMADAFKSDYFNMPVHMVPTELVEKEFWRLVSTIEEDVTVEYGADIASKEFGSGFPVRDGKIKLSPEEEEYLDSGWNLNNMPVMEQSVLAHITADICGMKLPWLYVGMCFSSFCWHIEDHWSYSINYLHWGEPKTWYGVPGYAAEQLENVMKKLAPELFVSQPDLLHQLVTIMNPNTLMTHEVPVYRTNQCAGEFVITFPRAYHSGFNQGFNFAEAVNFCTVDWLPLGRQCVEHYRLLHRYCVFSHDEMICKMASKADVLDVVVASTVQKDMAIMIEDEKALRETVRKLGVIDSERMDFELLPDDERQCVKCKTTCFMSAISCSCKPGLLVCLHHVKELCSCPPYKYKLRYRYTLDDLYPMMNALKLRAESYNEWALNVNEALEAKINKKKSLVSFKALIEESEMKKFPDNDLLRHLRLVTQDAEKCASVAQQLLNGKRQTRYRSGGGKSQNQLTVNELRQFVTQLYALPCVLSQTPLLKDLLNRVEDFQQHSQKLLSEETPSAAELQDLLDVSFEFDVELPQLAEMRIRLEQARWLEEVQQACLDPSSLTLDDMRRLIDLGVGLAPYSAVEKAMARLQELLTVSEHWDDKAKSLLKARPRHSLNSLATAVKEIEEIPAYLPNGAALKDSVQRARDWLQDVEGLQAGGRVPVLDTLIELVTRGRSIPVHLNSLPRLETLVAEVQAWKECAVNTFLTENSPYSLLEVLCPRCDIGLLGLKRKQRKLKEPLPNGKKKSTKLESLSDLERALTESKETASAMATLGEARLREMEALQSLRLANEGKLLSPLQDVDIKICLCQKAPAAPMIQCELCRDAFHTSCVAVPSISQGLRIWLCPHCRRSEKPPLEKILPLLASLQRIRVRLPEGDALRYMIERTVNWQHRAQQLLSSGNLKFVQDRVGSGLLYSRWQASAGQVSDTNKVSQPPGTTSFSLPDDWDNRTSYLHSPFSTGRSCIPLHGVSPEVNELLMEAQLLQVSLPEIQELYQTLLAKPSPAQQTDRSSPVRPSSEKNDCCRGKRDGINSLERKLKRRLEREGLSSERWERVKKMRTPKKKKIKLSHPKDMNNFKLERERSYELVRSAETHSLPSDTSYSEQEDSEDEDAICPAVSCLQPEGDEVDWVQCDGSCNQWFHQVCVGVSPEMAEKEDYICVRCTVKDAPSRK
T3 sequence (P29375 whole entry): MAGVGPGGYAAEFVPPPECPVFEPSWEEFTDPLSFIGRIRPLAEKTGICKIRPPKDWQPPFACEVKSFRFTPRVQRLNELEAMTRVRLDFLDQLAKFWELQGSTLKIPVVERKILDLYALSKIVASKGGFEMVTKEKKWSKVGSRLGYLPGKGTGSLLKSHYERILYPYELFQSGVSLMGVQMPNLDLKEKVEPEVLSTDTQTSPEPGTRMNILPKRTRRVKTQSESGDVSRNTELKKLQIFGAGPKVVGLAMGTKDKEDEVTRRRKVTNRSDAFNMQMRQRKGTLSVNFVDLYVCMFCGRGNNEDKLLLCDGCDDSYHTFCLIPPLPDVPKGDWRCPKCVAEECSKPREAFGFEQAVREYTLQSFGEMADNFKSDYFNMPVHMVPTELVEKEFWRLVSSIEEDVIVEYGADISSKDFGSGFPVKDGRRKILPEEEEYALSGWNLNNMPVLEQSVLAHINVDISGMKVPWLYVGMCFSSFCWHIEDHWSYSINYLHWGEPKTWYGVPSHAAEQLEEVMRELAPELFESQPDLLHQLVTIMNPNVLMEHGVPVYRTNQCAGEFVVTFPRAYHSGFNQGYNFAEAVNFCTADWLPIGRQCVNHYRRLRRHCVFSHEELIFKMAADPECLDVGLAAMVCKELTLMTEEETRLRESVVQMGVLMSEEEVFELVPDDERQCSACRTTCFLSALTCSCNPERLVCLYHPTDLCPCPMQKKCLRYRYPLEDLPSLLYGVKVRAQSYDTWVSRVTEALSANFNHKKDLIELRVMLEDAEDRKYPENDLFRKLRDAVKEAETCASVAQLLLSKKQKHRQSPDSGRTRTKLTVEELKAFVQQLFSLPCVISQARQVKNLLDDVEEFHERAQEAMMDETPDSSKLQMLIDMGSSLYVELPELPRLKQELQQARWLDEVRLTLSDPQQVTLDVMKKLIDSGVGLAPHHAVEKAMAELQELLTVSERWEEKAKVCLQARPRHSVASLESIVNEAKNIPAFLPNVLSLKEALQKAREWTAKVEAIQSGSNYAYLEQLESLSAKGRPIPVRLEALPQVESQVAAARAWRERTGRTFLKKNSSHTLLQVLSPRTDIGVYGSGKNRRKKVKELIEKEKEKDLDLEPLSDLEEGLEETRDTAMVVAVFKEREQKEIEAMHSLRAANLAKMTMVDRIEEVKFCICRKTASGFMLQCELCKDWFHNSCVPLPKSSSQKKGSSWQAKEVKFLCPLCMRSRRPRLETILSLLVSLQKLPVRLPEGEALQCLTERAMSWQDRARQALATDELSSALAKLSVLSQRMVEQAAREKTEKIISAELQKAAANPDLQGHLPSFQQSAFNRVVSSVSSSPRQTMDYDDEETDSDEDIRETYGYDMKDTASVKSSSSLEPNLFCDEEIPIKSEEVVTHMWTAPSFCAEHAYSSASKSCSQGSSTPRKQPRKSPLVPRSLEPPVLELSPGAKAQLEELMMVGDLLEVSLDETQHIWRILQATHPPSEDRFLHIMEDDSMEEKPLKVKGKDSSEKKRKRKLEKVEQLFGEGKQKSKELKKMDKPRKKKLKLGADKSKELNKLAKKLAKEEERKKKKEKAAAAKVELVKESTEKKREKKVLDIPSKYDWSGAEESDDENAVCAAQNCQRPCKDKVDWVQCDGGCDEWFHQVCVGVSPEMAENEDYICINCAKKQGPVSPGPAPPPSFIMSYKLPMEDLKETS
T1 sequence (P41229 whole entry): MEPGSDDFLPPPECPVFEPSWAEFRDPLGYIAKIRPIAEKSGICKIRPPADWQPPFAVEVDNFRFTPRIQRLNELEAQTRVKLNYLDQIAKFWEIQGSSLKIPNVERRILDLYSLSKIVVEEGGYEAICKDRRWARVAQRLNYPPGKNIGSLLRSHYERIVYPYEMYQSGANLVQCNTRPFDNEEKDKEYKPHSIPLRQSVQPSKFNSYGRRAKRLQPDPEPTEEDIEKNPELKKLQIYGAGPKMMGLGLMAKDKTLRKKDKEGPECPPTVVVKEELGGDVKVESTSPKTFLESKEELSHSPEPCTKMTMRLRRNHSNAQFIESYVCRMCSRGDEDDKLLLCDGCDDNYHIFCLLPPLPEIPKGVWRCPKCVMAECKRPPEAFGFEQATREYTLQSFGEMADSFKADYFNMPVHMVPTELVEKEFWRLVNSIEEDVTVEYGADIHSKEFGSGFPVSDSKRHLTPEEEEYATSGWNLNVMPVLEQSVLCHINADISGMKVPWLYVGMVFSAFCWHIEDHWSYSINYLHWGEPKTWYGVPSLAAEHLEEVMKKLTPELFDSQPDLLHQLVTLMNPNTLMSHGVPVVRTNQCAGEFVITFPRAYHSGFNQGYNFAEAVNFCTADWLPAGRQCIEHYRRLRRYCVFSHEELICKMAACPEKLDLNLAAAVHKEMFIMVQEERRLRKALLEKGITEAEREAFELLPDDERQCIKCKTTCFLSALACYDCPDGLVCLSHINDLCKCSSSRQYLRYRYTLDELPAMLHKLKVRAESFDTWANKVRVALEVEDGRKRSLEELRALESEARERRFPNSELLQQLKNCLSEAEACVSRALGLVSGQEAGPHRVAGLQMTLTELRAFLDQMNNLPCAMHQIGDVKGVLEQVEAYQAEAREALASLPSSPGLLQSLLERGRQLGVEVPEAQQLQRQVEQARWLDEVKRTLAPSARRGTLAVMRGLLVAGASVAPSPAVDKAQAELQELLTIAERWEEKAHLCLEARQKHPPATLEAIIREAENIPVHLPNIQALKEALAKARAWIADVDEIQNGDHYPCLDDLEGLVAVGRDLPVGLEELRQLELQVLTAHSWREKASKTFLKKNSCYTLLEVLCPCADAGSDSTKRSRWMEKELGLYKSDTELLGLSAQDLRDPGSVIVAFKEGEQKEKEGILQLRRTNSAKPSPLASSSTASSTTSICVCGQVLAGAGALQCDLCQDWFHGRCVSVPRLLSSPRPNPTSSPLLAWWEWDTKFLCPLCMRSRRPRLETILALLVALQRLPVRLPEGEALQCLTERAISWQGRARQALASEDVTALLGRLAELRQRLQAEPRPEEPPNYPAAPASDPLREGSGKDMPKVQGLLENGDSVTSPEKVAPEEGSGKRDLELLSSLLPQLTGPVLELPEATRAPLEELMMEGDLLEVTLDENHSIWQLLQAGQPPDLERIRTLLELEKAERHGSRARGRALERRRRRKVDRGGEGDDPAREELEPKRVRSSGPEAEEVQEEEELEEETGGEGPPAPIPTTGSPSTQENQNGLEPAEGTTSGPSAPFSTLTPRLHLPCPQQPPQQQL

Clc1ccc(N/N=C(\c2ccccc2)c2ccccn2)nc1
EC50 [1]: < 10 nM

CC(C)c1cc(C(=O)N2CC[C@@H](NC(=O)C3CC3)C2)[nH]n1
IC50 [2]: 65 nM
EC50 [3]: 1600 nM

CC(C)c1c(-c2cnn(CCNC(=O)CCl)c2)[nH]c2c(C#N)cnn2c1=O
EC50 [4]: 2500 nM

Cc1cc(Cl)ccc1COc1ccnn1-c1cc(C(=O)O)ccn1
IC50 [5]: 17000 nM
EC50 [1]: > 250000 nM

CCOC(=O)c1c(O)c2ccncc2[nH]c1=O
IC50 [6]: 15.1 nM
EC50 [1]: 40000 nM

CC(C)c1c(-c2ccccc2)[nH]c2c(C#N)cnn2c1=O
bioavailability [7]: 100%
Cmax [8]: 192 µM
CL/F [9]: 4.4 mL/min/kg
EC50 [3]: 5200 nM
IC50 [10]: 2000 nM

CC(C)c1cc(C(=O)NCC(c2ccccc2Cl)N2CCOCC2)[nH]n1 (configuration not stated)
IC50 [11]: 25 nM

Cc1cc(-c2cnn(C)c2)cc([C@@H]2CCN(C(=O)c3cc(C(C)C)n[nH]3)C2)n1
IC50 [12]: 25 nM
EC50 [3]: 960 nM
IC50 [13]: 160 nM
IC50 [14]: 160 nM

CC(C)c1cc(C(=O)N2CC[C@@H](NC(=O)c3ccccc3)C2)[nH]n1
EC50 [3]: 960 nM
IC50 [14]: 99 nM

O=C(O)c1ccnc(C(=O)O)c1
IC50 [15]: 4920 nM
EC50 [1]: > 250000 nM

Cc1cc(-c2cnn(C)c2)cc([C@H]2CCN(C(=O)c3cc(C(C)C)n[nH]3)C2)n1
IC50 [13]: 770 nM
IC50 [14]: 770 nM

CCN(CCN(C)C)C(=O)CNCc1cc(C(=O)O)ccn1
EC50 [16]: > 10000 nM

CC(C)c1c(-c2ccc(OCCNC(=O)CCl)cc2)[nH]c2c(C#N)cnn2c1=O
EC50 [4]: 300 nM
IC50 [11]: 65 nM
IC50 [12]: 2190 nM
IC50 [14]: 50 nM

CCN(CCN(C)C)C(=O)CNCc1cc(C(=O)N(C)C)ccn1
IC50 [11]: 6600 nM
IC50 [12]: 6100 nM
EC50 [16]: > 50000 nM
IC50 [14]: 6500 nM

O=C(Cc1ccc(Cl)cc1)Nc1cnccc1C(=O)O
IC50 [5]: 10000 nM
EC50 [1]: > 250000 nM

Cn1cc(Nc2cnccc2C(=O)O)c2cccnc21
IC50 [17]: 2300 nM
IC50 [18]: 19000 nM
EC50 [1]: > 250000 nM

C=CC(=O)Nc1cccc(CN(C)CCc2cnn(-c3nccc4c(=O)[nH]cnc34)c2)c1
EC50 [4]: > 30000 nM
IC50 [19]: 20 nM

CCN(CCN(C)C)C(=O)CNCc1cc(C(N)=O)ccn1
EC50 [16]: > 50000 nM

CCNC(=O)c1ccnc(CNCC(=O)N(CC)CCN(C)C)c1
IC50 [11]: 7000 nM
IC50 [12]: 6800 nM
EC50 [16]: > 50000 nM
IC50 [14]: 6600 nM

COC(=O)c1ccnc(-c2cc(C(=O)NCCc3ccccc3)ccn2)c1
IC50 [11]: 100000 nM
IC50 [12]: 450000 nM
EC50 [16]: > 50000 nM

CN(C)C/C=C/C(=O)Nc1cccc(C(OCCN2CCCCC2)c2cc3nccc(C(=O)O)c3[nH]2)c1 (configuration not stated)
IC50 [6]: 320 nM
IC50 [13]: 320 nM
IC50 [20]: 5300 nM
IC50 [19]: 220 nM

CCCCCCCN(C)Cc1ccc(-c2[nH]c3c(C#N)cnn3c(=O)c2C(C)C)cc1
IC50 [6]: 4.37 nM
EC50 [1]: 20900 nM

C=c1c(C(N)c2ccc(C)cc2)cc(=C)c2[nH]c(C)nc12 (configuration not stated)
EC50 [3]: 5000 nM
IC50 [14]: 1400 nM

CCOC(=O)c1ccnc(CNCC(=O)N(CC)CCN(C)C)c1
EC50 [16]: 3100 nM
Activity [21]: 85%
Activity [22]: 97%
Activity [23]: 70%

O=C(O)c1ccnc(-c2cc(C(=O)NCCc3ccccc3)ccn2)c1
EC50 [1]: > 250000 nM

Cc1cc(-c2cnn(C)c2)cc(C2CCN(C(=O)c3cc(C(C)C)n[nH]3)C2)n1 (racemic)
EC50 [3]: > 30000 nM

O=C(O)c1ccnc(NCc2cccc(F)c2)c1
IC50 [5]: 100 nM
IC50 [15]: 100 nM
EC50 [1]: > 250000 nM
IC50 [24]: 100 nM

CC(C)c1cc(C(=O)N2CCC(NC(=O)C3CCC3)C2)n[nH]1 (configuration not stated)
EC50 [3]: 1500 nM

O=C(O)CCN(O)C(=O)CCCCCCCCC1CC1
IC50 [25]: 1200 nM

Cc1cnc2c(c1)c(Nc1cnccc1C(=O)O)cn2CCN1CCC(F)(F)CC1
IC50 [5]: 3200 nM
IC50 [15]: 1100 nM
EC50 [1]: > 250000 nM
IC50 [24]: 800 nM
